Experimental data published in patent US5470830A, “Motilin-like polypeptides that inhibit gastrointestinal motor activity” (Ohmeda Pharmaceutical Products Division Inc., priority 1993, dated 1995).
Where two headings read alike, the source gives them in different places. Where a SMILES comes first, the peptide text is derived from it. Where no end group is shown, it is not given here. [ ]: non-standard residue; d: D form. Phe(4-I) = N[C@@H](Cc1ccc(I)cc1)C(=O)O; 3Pal = N[C@@H](Cc1cccnc1)C(=O)O; 2Thi = N[C@@H](Cc1cccs1)C(=O)O; Cha = N[C@@H](CC1CCCCC1)C(=O)O

What was measured:
[1] = biological target: segments of rabbit duodenum (Oryctolagus cuniculus, UniProt G1T803); experiment: Rabbit duodenal smooth muscle strip tissue bath assay (contractile response); type: cell-based; conditions: contractility; negative logarithm of dose giving 50% of maximal response to motilin; compounds tested 10^-11 to 10^-4 M
Method: The experimental protocol consisted of an equilibration period of 1 hour: a challenge with 10^-4 M acetylcholine followed by a wash-out period; a cumulative dose-response curve of a compound with, at the end, the addition of 10^-7 M motilin; and finally 10^-4 M acetylcholine. If the final response to 10^-4 M acetylcholine differed by more than 5% from the initial response, the results were discarded.

[2] = biological target: T1, motilin receptor (rabbit antral smooth muscle membranes) (Oryctolagus cuniculus, UniProt G1T803); experiment: Motilin receptor binding affinity: displacement of [125I-Tyr7,Nle13]motilin(porcine)
T1 construct: from tissue; host or cells: rabbit antral smooth muscle membranes
Method: The motilin receptor binding affinity of the peptides of this invention was determined by using the general procedure of Bormans, Peelers and Vantrappen, Regul. Pept., 15, 143-153 (1986). The ability of the peptides to displace [^125 I-Tyr^7,Nle^13 ]motilin(porcine) bound to rabbit antral smooth muscle membranes, was determined by testing twice, each time in duplicate, at concentrations ranging from 10^-11 to 10^-4 M. The concentration displacing 50% of the label (IC50) was determined by fitting the data to the equation describing displacement, assuming a single class of motilin receptors to which labeled and non-labeled motilin bind with equal affinity and non-cooperatively. Fitting was performed using the iterative least-squares procedure of the SAS-software package (SAS Institute, Inc., Cary, N.C., U.S.A.). […] The concentration displacing 50% of the label is expressed using its negative logarithm (pIC50).

[3] = negative logarithm of concentration displacing 50% of [125I-Tyr7,Nle13]motilin(porcine) from rabbit antral smooth muscle membranes, read-out: pIC50 (converted)

Chain of segments of rabbit duodenum (G1T803 1-400): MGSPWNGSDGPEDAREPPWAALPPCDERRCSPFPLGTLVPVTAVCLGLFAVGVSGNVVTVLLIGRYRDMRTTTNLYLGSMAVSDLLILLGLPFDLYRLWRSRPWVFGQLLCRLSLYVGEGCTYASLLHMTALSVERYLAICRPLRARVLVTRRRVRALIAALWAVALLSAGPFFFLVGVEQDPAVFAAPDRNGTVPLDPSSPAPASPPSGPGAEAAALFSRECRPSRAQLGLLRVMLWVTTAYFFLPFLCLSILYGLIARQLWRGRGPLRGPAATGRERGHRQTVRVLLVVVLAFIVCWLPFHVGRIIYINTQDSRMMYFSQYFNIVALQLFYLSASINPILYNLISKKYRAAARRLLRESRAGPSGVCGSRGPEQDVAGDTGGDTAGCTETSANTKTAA
T1 sequence (G1T803 1-400): as above

Compound	pEC50 [1]	IC50 [2, 3] [nM]	IC50 [2] [nM]
H-FLFIFTYGELQRLQ-OH [[Leu^2, Phe^3, Leu^13]pMOT(1-14), H-Phe-Leu-Phe-Ile-Phe-Thr-Tyr-Gly-Glu-Leu-Gln-Arg-Leu-Gln-OH]	< 4.5	33.9	
H-FVFIFTYGELARLQ-OH [[Phe^3, Ala^11, Leu^13]pMOT(1-14), H-Phe-Val-Phe-Ile-Phe-Thr-Tyr-Gly-Glu-Leu-Ala-Arg-Leu-Gln-OH]	< 4.5	15.8	
H-FVFIFTYGELQRLK-NH2 [[Phe^3, Leu^13, Lys^14]pMOT(1-14) amide, H-Phe-Val-Phe-Ile-Phe-Thr-Tyr-Gly-Glu-Leu-Gln-Arg-Leu-Lys-NH2]	< 4.5	1.58	
CC[C@H](C)[C@H](NC(=O)[C@H](Cc1ccccc1)NC(=O)[C@@H](NC(=O)[C@@H](N)Cc1ccccc1)C(C)C)C(=O)N[C@@H](Cc1ccccc1)C(=O)N[C@H](C(=O)N[C@@H](Cc1ccc(O)cc1)C(=O)N[C@H](C)C(=O)N[C@@H](CCC(=O)O)C(=O)N[C@@H](CC(C)C)C(=O)N[C@@H](CCC(N)=O)C(=O)N[C@@H](CCCNC(=N)N)C(=O)N[C@@H](CC(C)C)C(=O)N[C@@H](CCC(N)=O)C(=O)O)[C@@H](C)O [[Phe^3, D-Ala^8, Leu^13]pMOT(1-14), H-Phe-Val-Phe-Ile-Phe-Thr-Tyr-D-Ala-Glu-Leu-Gln-Arg-Leu-Gln-OH] (H-FVFIFTY[dA]ELQRLQ-OH)	< 4.5	49	
CC[C@H](C)[C@H](NC(=O)[C@H](Cc1ccccc1)NC(=O)[C@@H](NC(=O)[C@@H](N)Cc1ccccc1)C(C)C)C(=O)N[C@@H](Cc1ccccc1)C(=O)N[C@H](C(=O)N[C@@H](Cc1ccc(O)cc1)C(=O)NCC(=O)N[C@@H](CCC(=O)O)C(=O)N[C@@H](CC(C)C)C(=O)N[C@@H](CCC(N)=O)C(=O)N[C@H](CCCNC(=N)N)C(=O)N[C@@H](CC(C)C)C(=O)N[C@@H](CCC(N)=O)C(=O)O)[C@@H](C)O [[Phe^3, D-Arg^12, Leu^13]pMOT(1-14)] (H-FVFIFTYGELQ[dR]LQ-OH)	< 4.5	81.3	
CC[C@H](C)[C@H](NC(=O)[C@H](Cc1ccccc1)NC(=O)[C@@H](NC(=O)[C@@H](N)Cc1ccccc1)C(C)C)C(=O)N[C@@H](CC1CCCCC1)C(=O)N[C@H](C(=O)N[C@@H](Cc1ccc(O)cc1)C(=O)NCC(=O)N[C@@H](CCC(=O)O)C(=O)N[C@@H](CC(C)C)C(=O)N[C@@H](CCC(N)=O)C(=O)N[C@@H](CCCNC(=N)N)C(=O)N[C@@H](CC(C)C)C(=O)N[C@@H](CCC(N)=O)C(=O)O)[C@@H](C)O [[Phe^3, Cha^5, Leu^13]pMOT(1-14), H-Phe-Val-Phe-Ile-Cha-Thr-Tyr-Gly-Glu-Leu-Gln-Arg-Leu-Gln-OH] (H-FVFI[Cha]TYGELQRLQ-OH)	< 4.5	25.1	
FVFIFTYGELQRLQEKERNKGQ [[Phe^3,Leu^13]pMOT, [3-Phenylalanine, 13-leucine]motilin (Porcine), Pentakis-trifluoroacetate Salt]	< 4.5		0.776
FVIIFTYGELQRLQEKERNKGQ [[Ile^3, Leu^13]pMOT]	< 4.5		15.1
CC[C@H](C)[C@H](NC(=O)[C@H](Cc1ccc(I)cc1)NC(=O)[C@@H](NC(=O)[C@@H](N)Cc1ccccc1)C(C)C)C(=O)N[C@@H](Cc1ccccc1)C(=O)N[C@H](C(=O)N[C@@H](Cc1ccc(O)cc1)C(=O)NCC(=O)N[C@@H](CCC(=O)O)C(=O)N[C@@H](CC(C)C)C(=O)N[C@@H](CCC(N)=O)C(=O)N[C@@H](CCCNC(=N)N)C(=O)N[C@@H](CC(C)C)C(=O)N[C@@H](CCC(N)=O)C(=O)O)[C@@H](C)O [[p-I-Phe^3, Leu^13]pMOT(1-14), H-Phe-Val-p-L-Phe-Ile-Phe-Thr-Tyr-Gly-Glu-Leu-Gln-Arg-Leu-Gln-OH] (H-FV[Phe(4-I)]IFTYGELQRLQ-OH)	< 4.5	43.7	
H-FVFLFTYGELQRLQ-OH [[Phe^3, Leu^4, Leu^13]pMOT(1-14), H-Phe-Val-Phe-Leu-Phe-Thr-Tyr-Gly-Glu-Leu-Gln-Arg-Leu-Gln-OH]	< 4.5	3.98	
FVFIFTYGELQR-NH2 [[Phe^3 pMOT(1-12) amide, [3-Phenylalanine]motilin-(1-12)-peptide Amide (Porcine), Bis-trifluoroacetate Salt]	< 4.5	27.5	
CC[C@H](C)[C@H](NC(=O)[C@H](Cc1ccccc1)NC(=O)[C@@H](NC(=O)[C@@H](N)CC1CCCCC1)C(C)C)C(=O)N[C@@H](Cc1ccccc1)C(=O)N[C@H](C(=O)N[C@@H](Cc1ccc(O)cc1)C(=O)NCC(=O)N[C@@H](CCC(=O)O)C(=O)N[C@@H](CC(C)C)C(=O)N[C@@H](CCC(N)=O)C(=O)N[C@@H](CCCNC(=N)N)C(=O)N[C@@H](CC(C)C)C(=O)N[C@@H](CCC(N)=O)C(=O)O)[C@@H](C)O [[Cha^1, Phe^3, Leu^13]pMOT(1-14), H-Cha-Val-Phe-Ile-Phe-Thr-Tyr-Gly-Glu-Leu-Gln-Arg-Leu-Gln-OH] (H-[Cha]VFIFTYGELQRLQ-OH)	< 4.5	29.5	
CC[C@H](C)[C@H](NC(=O)[C@H](Cc1ccccc1)NC(=O)[C@@H](NC(=O)[C@H](N)Cc1ccccc1)C(C)C)C(=O)N[C@@H](Cc1ccccc1)C(=O)N[C@H](C(=O)N[C@@H](Cc1ccc(O)cc1)C(=O)NCC(=O)N[C@@H](CCC(=O)O)C(=O)N[C@@H](CC(C)C)C(=O)N[C@@H](CCC(N)=O)C(=O)N[C@@H](CCCNC(=N)N)C(=O)N[C@@H](CC(C)C)C(=O)N[C@@H](CCC(N)=O)C(=O)O)[C@@H](C)O [[D-Phe^1, Phe^3, Leu^13]pMOT(1-14), H-D-Phe-Val-Phe-Ile-Phe-Thr-Tyr-Gly-Glu-Leu-Gln-Arg-Leu-Gln-OH] (H-[dF]VFIFTYGELQRLQ-OH)	< 4.5	229	
H-FVLIFTYGELQRLQ-OH [[Leu^3, Leu^13]pMOT(1-14), H-Phe-Val-Leu-Ile-Phe-Thr-Tyr-Gly-Glu-Leu-Gln-Arg-Leu-Gln-OH]	< 4.5	178	
H-FVFIATYGELQRLQ-OH [[Phe^3, Ala^5, Leu^13]pMOT(1-14), H-Phe-Val-Phe-Ile-Ala-Thr-Tyr-Gly-Glu-Leu-Gln-Arg-Leu-Gln-OH]	< 4.5	15.8	
CC[C@H](C)[C@H](NC(=O)[C@H](Cc1cccs1)NC(=O)[C@@H](NC(=O)[C@@H](N)Cc1ccccc1)C(C)C)C(=O)N[C@@H](Cc1ccccc1)C(=O)N[C@H](C(=O)N[C@@H](Cc1ccc(O)cc1)C(=O)NCC(=O)N[C@@H](CCC(=O)O)C(=O)N[C@@H](CC(C)C)C(=O)N[C@@H](CCC(N)=O)C(=O)N[C@@H](CCCNC(=N)N)C(=O)N[C@@H](CC(C)C)C(=O)N[C@@H](CCC(N)=O)C(=O)O)[C@@H](C)O [[Thi^3, Leu^13]pMOT(1-14), H-Phe-Val-Thi-Ile-Phe-Thr-Tyr-Gly-Glu-Leu-Gln-Arg-Leu-Gln-OH] (H-FV[2Thi]IFTYGELQRLQ-OH)	< 4.5	25.7	
CC[C@H](C)[C@H](NC(=O)[C@@H](Cc1ccccc1)NC(=O)[C@@H](NC(=O)[C@@H](N)Cc1ccccc1)C(C)C)C(=O)N[C@@H](Cc1ccccc1)C(=O)N[C@H](C(=O)N[C@@H](Cc1ccc(O)cc1)C(=O)NCC(=O)N[C@@H](CCC(=O)O)C(=O)N[C@@H](CC(C)C)C(=O)N[C@@H](CCC(N)=O)C(=O)N[C@@H](CCCNC(=N)N)C(=O)N[C@@H](CC(C)C)C(=O)N[C@@H](CCC(N)=O)C(=O)O)[C@@H](C)O [[D-Phe^3, Leu^13]pMOT(1-14), H-Phe-Val-D-Phe-Ile-Phe-Thr-Tyr-Gly-Glu-Leu-Gln-Arg-Leu-Gln-OH] (H-FV[dF]IFTYGELQRLQ-OH)	< 4.5	8.13	
CC[C@H](C)[C@H](NC(=O)[C@H](Cc1ccccc1)NC(=O)[C@@H](NC(=O)[C@@H](N)Cc1ccccc1)C(C)C)C(=O)N[C@@H](Cc1ccccc1)C(=O)N[C@H](C(=O)N[C@@H](Cc1ccc(O)cc1)C(=O)NCC(=O)N[C@@H](CCC(=O)O)C(=O)N[C@@H](CC(C)C)C(=O)N[C@@H](CCC(N)=O)C(=O)N[C@@H](CCCNC(=N)N)C(=O)N[C@@H](CC(C)C)C(=O)N[C@H](CCC(N)=O)C(N)=O)[C@@H](C)O [H-Phe-Val-Phe-Ile-Phe-Thr-Tyr-Gly-Glu-Leu-Gln-Arg-Leu-D-Gln-NH2] (H-FVFIFTYGELQRL[dQ]-NH2)	< 4.5	0.977	
CC[C@H](C)[C@H](NC(=O)[C@H](Cc1cccnc1)NC(=O)[C@@H](NC(=O)[C@@H](N)Cc1ccccc1)C(C)C)C(=O)N[C@@H](Cc1ccccc1)C(=O)N[C@H](C(=O)N[C@@H](Cc1ccc(O)cc1)C(=O)NCC(=O)N[C@@H](CCC(=O)O)C(=O)N[C@@H](CC(C)C)C(=O)N[C@@H](CCC(N)=O)C(=O)N[C@@H](CCCNC(=N)N)C(=O)N[C@@H](CC(C)C)C(=O)N[C@@H](CCC(N)=O)C(=O)O)[C@@H](C)O [[Pal^3, Leu^13]pMOT(1-14), H-Phe-Val-Pal-Ile-Phe-Thr-Tyr-Gly-Glu-Leu-Gln-Arg-Leu-Gln-OH] (H-FV[3Pal]IFTYGELQRLQ-OH)	< 4.5	158	
